The assay concerns the target T1, rhIKK1/IKK2 heterodimer (Homo sapiens, UniProt O14920+O15111).
T1 construct: made in house; host or cells: insect cells (baculovirus coinfection; SF9)
T1 sequence (O14920 1-756): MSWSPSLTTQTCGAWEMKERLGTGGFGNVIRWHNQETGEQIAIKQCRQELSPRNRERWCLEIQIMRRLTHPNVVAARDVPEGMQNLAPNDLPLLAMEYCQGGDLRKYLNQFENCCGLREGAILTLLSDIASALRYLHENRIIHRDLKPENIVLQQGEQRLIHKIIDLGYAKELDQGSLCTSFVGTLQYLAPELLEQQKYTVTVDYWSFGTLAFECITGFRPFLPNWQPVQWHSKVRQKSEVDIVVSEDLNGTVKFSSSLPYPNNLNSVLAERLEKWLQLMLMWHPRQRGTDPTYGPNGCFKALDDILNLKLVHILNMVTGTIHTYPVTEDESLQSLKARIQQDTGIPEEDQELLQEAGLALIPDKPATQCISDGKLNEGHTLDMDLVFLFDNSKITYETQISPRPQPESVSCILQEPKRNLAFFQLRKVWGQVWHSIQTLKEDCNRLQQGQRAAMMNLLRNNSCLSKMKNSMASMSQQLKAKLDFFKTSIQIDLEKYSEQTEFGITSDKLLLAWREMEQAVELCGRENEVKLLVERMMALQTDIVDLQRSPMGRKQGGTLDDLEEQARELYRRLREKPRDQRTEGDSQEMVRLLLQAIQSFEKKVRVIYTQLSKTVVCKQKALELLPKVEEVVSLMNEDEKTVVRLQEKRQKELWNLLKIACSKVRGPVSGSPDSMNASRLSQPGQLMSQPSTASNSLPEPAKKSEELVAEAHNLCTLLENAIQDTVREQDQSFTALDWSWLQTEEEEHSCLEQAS
T1 sequence (O15111 1-745): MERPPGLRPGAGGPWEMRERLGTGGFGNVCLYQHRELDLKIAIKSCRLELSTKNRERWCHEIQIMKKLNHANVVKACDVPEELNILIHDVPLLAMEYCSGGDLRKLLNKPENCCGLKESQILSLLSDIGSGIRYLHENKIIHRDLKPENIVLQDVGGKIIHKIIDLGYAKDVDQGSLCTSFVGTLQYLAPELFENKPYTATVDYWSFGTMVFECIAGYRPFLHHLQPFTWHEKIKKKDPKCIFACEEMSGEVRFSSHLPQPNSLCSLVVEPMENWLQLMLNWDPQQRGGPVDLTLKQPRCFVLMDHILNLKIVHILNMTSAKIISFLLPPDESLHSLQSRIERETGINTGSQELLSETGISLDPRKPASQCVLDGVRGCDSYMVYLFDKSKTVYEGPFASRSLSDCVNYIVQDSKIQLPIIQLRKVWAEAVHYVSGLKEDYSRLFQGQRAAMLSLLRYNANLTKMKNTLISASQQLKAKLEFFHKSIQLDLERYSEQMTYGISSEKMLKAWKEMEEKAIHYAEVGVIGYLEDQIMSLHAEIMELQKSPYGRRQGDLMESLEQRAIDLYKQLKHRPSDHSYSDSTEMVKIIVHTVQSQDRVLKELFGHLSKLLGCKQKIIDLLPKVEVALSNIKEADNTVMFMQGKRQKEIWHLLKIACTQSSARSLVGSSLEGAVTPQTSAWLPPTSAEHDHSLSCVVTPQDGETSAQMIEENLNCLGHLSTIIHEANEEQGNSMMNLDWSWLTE
Kind of assay: IKK Heterodimer Resin Enzyme Assay. The assay is classed as biochemical. The text has this: cDNAs of human IKK1 and IKK2 were amplified by reverse transcriptase-polymerase chain reaction from human placental RNA (Clonetech). hIKK1 was subcloned into pFastBac HTa (Life Technologies) and expressed as N-terminal His6-tagged fusion protein. The hIKK2 cDNA was amplified using a reverse oligonucleotide primer which incorporated the peptide sequence for a FLAG-epitope tag at the C-terminus of the IKK2 coding region ([…]). The hIKK2:FLAG cDNA was subcloned into the baculovirus vector pFastBac. The rhIKK2 ([…]) mutant was constructed in the same vector used for wild type rhIKK2 using a QuikChange™ mutagenesis kit (Stratagene). Viral stocks of each construct were used to infect insect cells grown in 40L suspension culture. […] Cell lysates were stored at −80° C. until purification of the recombinant proteins was undertaken as described below.
Isolation of rhIKK1/IKK2 Heterodimer
The heterodimer enzyme was produced by coinfection in a baculovirus system (FLAG IKK2/IKK1 His; MOI=0.1 and I=72 hrs). Infected cells were centrifuged and the cell pellet (10.0 g) was suspended in 50 ml of buffer A. The protein suspension was microfluidized and centrifuged at 100,000×g for 45 min. Imidazole was added to the supernatant to a final concentration of 10 mM. The protein was allowed to bind 25 ml of Ni-NTA resin by mixing for 2 hrs. The protein-resin slurry was poured into a 25 ml column and washed with 250 ml of buffer A containing 10 mM imidazole followed by 125 ml of buffer A containing 50 mM imidazole. Buffer A, containing 300 mM imidazole, was then used to elute the protein. A 75 ml pool was collected and NP-40 was added to a final concentration of 0.1%. […] The protein-resin slurry was then centrifuged for 5 min at 2,000 rpm. The supernatant was collected and the resin re-suspended in 100 ml of buffer C containing 0.1% NP-40. The resin was washed with 375 ml of buffer C containing 0.1% NP-40. The protein-resin was poured into a 25 ml column and the enzyme eluted using buffer B containing FLAG peptide. Enzyme fractions (100 ml) were collected and concentrated to 20 ml using an Amicon membrane with molecular weight cut-off of 30 kDa. Bovine serum albumin was added to the concentrated enzyme to final concentration of 0.1%. The enzyme was then aliquoted and stored at −80° C.
IKK Heterodimer Resin Enzyme Assay
Resin was allowed to settle for one hour and 50 ul of supernatant was removed to a Micolite-2 flat bottom plate (Dynex). 150 μl of scintillation fluid (Microscint 40) (Packard) was added to each well. Incorporation of [γ-^33P] ATP was measured using a Top-Count NXT (Packard).

[1] abbreviates: Table 1, values given as bins, read-out: HetD (IKK heterodimer assay values expressed as IC50).

pIC50: −log10 of the molar value. Where two headings read alike, the source gives them in different places.

Turning to `NC(=O)c1nn(-c2ccc(S(N)(=O)=O)cc2)c2c1ccc1ccc(NC(=O)c3cccnc3)cc12` [Example 13, 1-[4-(aminosulfonyl)phenyl]-8-[(pyridin-3-ylcarbonyl)amino]-1H-benzo[g]indazole-3-carboxamide], the pIC50 under setting [1] was no less than 6.00.
As for `NC(=O)c1nn(-c2ccc(S(N)(=O)=O)cc2)c2c1ccc1ccc(NC(=O)c3cccc(Br)c3)cc12` [Example 12, 1-[4-(aminosulfonyl)phenyl]-8-[(3-bromobenzoyl)amino]-1H-benzo[g]indazole-3-carboxamide], under setting [1], the pIC50 is no less than 6.00.
For the compound `NC(=O)c1nn(-c2ccc(S(N)(=O)=O)cc2)c2c1ccc1ccc(NC(=O)c3cccnc3Cl)cc12` [Example 32, 1-[4-(aminosulfonyl)phenyl]-8-{[(2-chloropyridin-3-yl)carbonyl]amino}-1H-benzo[g]indazole-3-carboxamide], the pIC50 under setting [1] is no less than 6.00.
As to `NC(=O)c1nn(-c2ccc(S(N)(=O)=O)cc2)c2c1ccc1ccc(NC(=O)c3c(Cl)cccc3Cl)cc12` [Example 28, 1-[4-(aminosulfonyl)phenyl]-8-[(2,6-dichlorobenzoyl)amino]-1H-benzo[g]indazole-3-carboxamide], the pIC50 under setting [1] was no less than 6.00.
For `NC(=O)c1nn(-c2ccc(S(N)(=O)=O)cc2)c2c1ccc1ccc(NC(=O)c3ccccc3C(F)(F)F)cc12` [Example 26, 1-[4-(aminosulfonyl)phenyl]-8-{[2-(trifluoromethyl)benzoyl]amino}-1H-benzo[g]indazole-3-carboxamide], under setting [1], the pIC50 was no less than 6.00.
In the case of `NC(=O)c1nn(-c2ccc(S(N)(=O)=O)cc2)c2c1ccc1ccc(NC(=O)c3ccncc3)cc12` [Example 34, 1-[4-(aminosulfonyl)phenyl]-8-(isonicotinoylamino)-1H-benzo[g]indazole-3-carboxamide], the pIC50 under setting [1] is no less than 6.00.
Consider `NC(=O)c1nn(-c2ccc(S(N)(=O)=O)cc2)c2c1ccc1ccc(NC(=O)c3cccc(Cl)c3Cl)cc12` [Example 30, 1-[4-(aminosulfonyl)phenyl]-8-[(2,3-dichlorobenzoyl)amino]-1H-benzo[g]indazole-3-carboxamide], for which, under setting [1], the pIC50 was no less than 6.00.
As for `COc1ccccc1C(=O)Nc1ccc2ccc3c(C(N)=O)nn(-c4ccc(S(N)(=O)=O)cc4)c3c2c1` [Example 25, 1-[4-(aminosulfonyl)phenyl]-8-[(2-methoxybenzoyl)amino]-1H-benzo[g]indazole-3-carboxamide], the pIC50 was 5.00 to 6.00.
In the case of `NC(=O)c1nn(-c2ccc(S(N)(=O)=O)cc2)c2c1ccc1ccc(NS(=O)(=O)c3cccc(C(F)(F)F)c3)cc12` [Example 19, 1-[4-(aminosulfonyl)phenyl]-8-({[3-(trifluoromethyl)phenyl]sulfonyl}amino)-1H-benzo[g]indazole-3-carboxamide], the pIC50 under setting [1] was 4.00 to 5.00.
On the same count and under the same terms, the result for `NC(=O)c1nn(-c2ccc(S(N)(=O)=O)cc2)c2c1ccc1ccc(NS(=O)(=O)c3cccc(Cl)c3)cc12` [Example 16, 1-[4-(aminosulfonyl)phenyl]-8-{[(3-chlorophenyl)sulfonyl]amino}-1H-benzo[g]indazole-3-carboxamide] reads 5.00 to 6.00; that for `NC(=O)c1nn(-c2ccc(S(N)(=O)=O)cc2)c2c1ccc1ccc(NC(=O)c3cccc(Cl)c3)cc12` [Example 9, 1-[4-(aminosulfonyl)phenyl]-8-[(3-chlorobenzoyl)amino]-1H-benzo[g]indazole-3-carboxamide], no less than 6.00; that for `NC(=O)c1nn(-c2ccc(S(N)(=O)=O)cc2)c2c1ccc1ccc(NS(=O)(=O)c3cc(Cl)c(Cl)cc3Cl)cc12` [Example 23, 1-[4-(aminosulfonyl)phenyl]-8-{[(2,4,5-trichlorophenyl)sulfonyl]amino}-1H-benzo[g]indazole-3-carboxamide], 5.00 to 6.00.
The same measure, in the same setting: the figure for `NC(=O)c1nn(-c2ccc(S(N)(=O)=O)cc2)c2c1ccc1ccc(NS(=O)(=O)c3ccccc3Cl)cc12` [Example 33, 1-[4-(aminosulfonyl)phenyl]-8-{[(2-chlorophenyl)sufonyl]amino}-1H-benzo[g]indazole-3-carboxamide] is 5.00 to 6.00.
On the same count and under the same terms, the figure for `COc1cccc(C(=O)Nc2ccc3ccc4c(C(N)=O)nn(-c5ccc(S(N)(=O)=O)cc5)c4c3c2)c1` [Example 8, 1-[4-(aminosulfonyl)phenyl]-8-[(3-methoxybenzoyl)amino]-1H-benzo[g]indazole-3-carboxamide] is no less than 6.00; for `NC(=O)c1nn(-c2ccc(S(N)(=O)=O)cc2)c2c1ccc1ccc(NC(=O)c3ccccc3F)cc12` [Example 31, 1-[4-(aminosulfonyl)phenyl]-8-[(2-fluorobenzoyl)amino]-1H-benzo[g]indazole-3-carboxamide] it is no less than 6.00.
With `NC(=O)c1nn(-c2ccc(S(N)(=O)=O)cc2)c2c1ccc1ccc(NC(=O)c3ccccc3OC(F)(F)F)cc12` [Example 29], under setting [1], the pIC50 was no less than 6.00.
On the same count and under the same terms, the result for `Cc1ccccc1C(=O)Nc1ccc2ccc3c(C(N)=O)nn(-c4ccc(S(N)(=O)=O)cc4)c3c2c1` [Example 27, 1-[4-(aminosulfonyl)phenyl]-8-[(2-methylbenzoyl)amino]-1H-benzo[g]indazole-3-carboxamide] reads no less than 6.00; that for `CS(=O)(=O)Nc1ccc2ccc3c(C(N)=O)nn(-c4ccc(S(N)(=O)=O)cc4)c3c2c1` [Example 21, 1-[4-(aminosulfonyl)phenyl]-8-[(methylsulfonyl)amino]-1H-benzo[g]indazole-3-carboxamide], no less than 6.00; that for `NC(=O)c1nn(-c2ccc(S(N)(=O)=O)cc2)c2c1ccc1ccc(NC(=O)c3cccc(C(F)(F)F)c3)cc12` [Example 10, 1-[4-(aminosulfonyl)phenyl]-8-{[3-(trifluoromethyl)benzoyl]amino}-1H-benzo[g]indazole-3-carboxamide], 5.00 to 6.00.
With `C=CCN(CC=C)S(=O)(=O)c1ccc(-n2nc(C(N)=O)c3ccc4ccc(N)cc4c32)cc1` [Example 7, 8-amino-1-{4-[(diallylamino)sulfonyl]phenyl}-1H-benzo[g]indazole-3-carboxamide], the pIC50 under setting [1] was no less than 6.00.
As for “8-amino-1-{4-[(aminothio)peroxy]phenyl}-1H-benzo[g]indazole-3-carboxamide [Example 4c]”, the pIC50 under setting [1] was no less than 6.00.

One may read the pIC50 as the IC50 on a negative log10 scale, so that one unit is a factor of ten.

The values above are taken from US6849653B2, “Substituted pyrazolyl benzenesulfamide compounds for the treatment of inflammation” (Pharmacia Corporation, priority 2001, dated 2005).
